Assays:
[1] = biological target: Histone-lysine N-methyltransferase 2C (Homo sapiens) (UniProt Q8NEZ4); conditions: at 10 µM
[2] = biological target: Ephrin type-A receptor 2 (Homo sapiens) (UniProt P29317); experiment: Selectivity interaction (Kinase panel (DSF assay)) EUB0001558a EPHA2
[3] = biological target: T1, Serine/threonine-protein kinase VRK1 (Homo sapiens) (UniProt Q99986); experiment: Selectivity interaction (Kinase panel (DSF assay)) EUB0001558a VRK1
T1 sequence (whole entry): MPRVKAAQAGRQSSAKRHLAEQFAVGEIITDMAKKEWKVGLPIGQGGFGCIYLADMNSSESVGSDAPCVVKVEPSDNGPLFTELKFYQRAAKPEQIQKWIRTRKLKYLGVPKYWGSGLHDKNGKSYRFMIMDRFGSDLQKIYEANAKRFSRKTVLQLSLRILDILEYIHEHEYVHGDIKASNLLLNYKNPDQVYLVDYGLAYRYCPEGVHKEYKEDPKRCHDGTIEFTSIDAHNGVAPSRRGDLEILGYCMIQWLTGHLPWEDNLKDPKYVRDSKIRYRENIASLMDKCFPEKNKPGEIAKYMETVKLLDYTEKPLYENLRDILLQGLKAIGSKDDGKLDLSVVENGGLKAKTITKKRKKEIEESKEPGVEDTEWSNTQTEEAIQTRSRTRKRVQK

[4] = biological target: MAP/microtubule affinity-regulating kinase 3 (Homo sapiens) (UniProt P27448); conditions: at 10 µM
[5] = biological target: T2, NUAK family SNF1-like kinase 1 (Homo sapiens) (UniProt O60285); conditions: at 10 µM
T2 sequence (whole entry): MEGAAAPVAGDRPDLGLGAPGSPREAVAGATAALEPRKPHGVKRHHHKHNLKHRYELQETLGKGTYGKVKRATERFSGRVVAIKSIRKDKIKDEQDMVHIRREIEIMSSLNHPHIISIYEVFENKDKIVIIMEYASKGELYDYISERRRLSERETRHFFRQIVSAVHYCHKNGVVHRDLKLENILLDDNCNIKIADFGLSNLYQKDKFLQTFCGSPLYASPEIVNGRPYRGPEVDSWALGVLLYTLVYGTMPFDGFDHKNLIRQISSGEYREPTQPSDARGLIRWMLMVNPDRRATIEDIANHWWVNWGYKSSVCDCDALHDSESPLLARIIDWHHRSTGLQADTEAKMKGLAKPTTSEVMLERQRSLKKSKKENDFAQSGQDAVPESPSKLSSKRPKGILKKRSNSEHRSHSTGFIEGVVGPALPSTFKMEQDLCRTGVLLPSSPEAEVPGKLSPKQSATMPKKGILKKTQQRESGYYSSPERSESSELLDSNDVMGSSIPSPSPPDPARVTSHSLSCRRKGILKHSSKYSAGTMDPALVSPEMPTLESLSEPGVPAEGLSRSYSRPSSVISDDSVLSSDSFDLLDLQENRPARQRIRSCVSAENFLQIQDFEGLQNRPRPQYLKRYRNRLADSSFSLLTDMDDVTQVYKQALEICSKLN

[6] = tested on: Tyrosine-protein kinase ABL1 (Homo sapiens), P00519 [Y253F]; conditions: at 10 µM
[7] = biological target: Serine/threonine-protein kinase tousled-like 2 (Homo sapiens) (UniProt Q86UE8); experiment: Selectivity interaction (KinomeScan (DiscoverX)) EUB0001619a TLK2; conditions: at 1 µM
[8] = biological target: T3, Serine/threonine-protein kinase D1 (Homo sapiens) (UniProt Q15139); experiment: Selectivity interaction (KinomeScan (DiscoverX)) EUB0001619a PRKD1; conditions: at 1 µM
T3 sequence (whole entry): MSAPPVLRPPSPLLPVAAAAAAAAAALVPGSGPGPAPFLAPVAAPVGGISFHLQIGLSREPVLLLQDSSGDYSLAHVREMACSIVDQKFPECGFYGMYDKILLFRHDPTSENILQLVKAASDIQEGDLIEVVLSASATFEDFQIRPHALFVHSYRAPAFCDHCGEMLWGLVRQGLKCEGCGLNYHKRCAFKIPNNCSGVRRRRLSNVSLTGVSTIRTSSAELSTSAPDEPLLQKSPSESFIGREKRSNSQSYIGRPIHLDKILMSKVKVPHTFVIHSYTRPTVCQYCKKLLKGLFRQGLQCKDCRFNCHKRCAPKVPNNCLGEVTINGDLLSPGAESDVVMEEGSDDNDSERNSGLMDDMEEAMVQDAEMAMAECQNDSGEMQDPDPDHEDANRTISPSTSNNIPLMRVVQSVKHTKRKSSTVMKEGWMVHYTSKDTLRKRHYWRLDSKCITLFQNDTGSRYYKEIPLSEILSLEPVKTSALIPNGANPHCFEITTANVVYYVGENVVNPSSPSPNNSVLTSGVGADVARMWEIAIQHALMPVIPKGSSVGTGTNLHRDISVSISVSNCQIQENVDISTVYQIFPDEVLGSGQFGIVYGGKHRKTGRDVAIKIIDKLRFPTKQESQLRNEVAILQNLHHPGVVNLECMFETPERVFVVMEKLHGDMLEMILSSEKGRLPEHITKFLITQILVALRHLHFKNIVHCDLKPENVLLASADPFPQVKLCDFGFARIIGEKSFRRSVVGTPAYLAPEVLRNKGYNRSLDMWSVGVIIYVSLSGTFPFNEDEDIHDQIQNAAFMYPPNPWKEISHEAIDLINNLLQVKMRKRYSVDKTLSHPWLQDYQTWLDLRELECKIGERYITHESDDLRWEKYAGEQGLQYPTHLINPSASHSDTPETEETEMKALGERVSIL

[9] = biological target: T4, Activin receptor type-1B (Homo sapiens) (UniProt P36896); experiment: Selectivity interaction (KinomeScan (DiscoverX)) EUB0000607a ACVR1B; conditions: at 10 µM
T4 sequence (whole entry): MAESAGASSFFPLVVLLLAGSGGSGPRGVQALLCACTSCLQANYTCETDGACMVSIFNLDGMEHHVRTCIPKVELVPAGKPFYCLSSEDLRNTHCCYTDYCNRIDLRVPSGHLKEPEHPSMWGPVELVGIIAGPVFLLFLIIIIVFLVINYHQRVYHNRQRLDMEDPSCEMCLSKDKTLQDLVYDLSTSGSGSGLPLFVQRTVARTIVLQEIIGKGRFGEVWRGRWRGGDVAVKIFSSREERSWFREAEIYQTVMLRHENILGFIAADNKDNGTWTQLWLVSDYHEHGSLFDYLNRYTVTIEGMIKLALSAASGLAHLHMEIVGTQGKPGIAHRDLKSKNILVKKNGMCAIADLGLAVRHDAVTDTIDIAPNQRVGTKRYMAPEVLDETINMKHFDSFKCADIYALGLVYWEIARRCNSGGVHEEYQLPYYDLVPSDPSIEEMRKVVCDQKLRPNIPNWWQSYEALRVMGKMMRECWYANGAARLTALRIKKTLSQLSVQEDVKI

[10] = biological target: Prostaglandin G/H synthase 1 (Homo sapiens) (UniProt P23219); experiment: Selectivity interaction (Panel of non-epigenetic targets (kinases, GPCRs, ion channels, and transporters, Eurofins) ) EUB0000271b PTGS1; conditions: at 1 µM
Sequence of Prostaglandin G/H synthase 1 (Homo sapiens) (P23219 whole entry): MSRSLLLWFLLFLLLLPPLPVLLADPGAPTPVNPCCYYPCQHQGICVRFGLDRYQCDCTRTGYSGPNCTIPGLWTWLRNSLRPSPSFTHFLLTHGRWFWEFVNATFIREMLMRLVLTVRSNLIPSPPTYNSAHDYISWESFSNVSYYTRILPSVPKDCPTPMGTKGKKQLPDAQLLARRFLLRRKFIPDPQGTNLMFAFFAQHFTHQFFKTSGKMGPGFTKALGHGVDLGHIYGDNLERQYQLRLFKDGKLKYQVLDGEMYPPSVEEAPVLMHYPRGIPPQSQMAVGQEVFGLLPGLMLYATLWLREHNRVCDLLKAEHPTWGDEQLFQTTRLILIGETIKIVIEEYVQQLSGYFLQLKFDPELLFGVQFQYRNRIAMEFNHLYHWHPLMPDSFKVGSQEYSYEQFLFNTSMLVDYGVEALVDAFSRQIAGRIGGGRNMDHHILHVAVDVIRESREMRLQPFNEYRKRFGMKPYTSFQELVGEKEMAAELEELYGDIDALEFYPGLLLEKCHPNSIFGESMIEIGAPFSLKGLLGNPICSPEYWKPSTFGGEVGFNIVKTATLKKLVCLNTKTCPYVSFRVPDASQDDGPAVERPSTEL

Sequence of Serine/threonine-protein kinase tousled-like 2 (Homo sapiens) (Q86UE8 whole entry, looked up): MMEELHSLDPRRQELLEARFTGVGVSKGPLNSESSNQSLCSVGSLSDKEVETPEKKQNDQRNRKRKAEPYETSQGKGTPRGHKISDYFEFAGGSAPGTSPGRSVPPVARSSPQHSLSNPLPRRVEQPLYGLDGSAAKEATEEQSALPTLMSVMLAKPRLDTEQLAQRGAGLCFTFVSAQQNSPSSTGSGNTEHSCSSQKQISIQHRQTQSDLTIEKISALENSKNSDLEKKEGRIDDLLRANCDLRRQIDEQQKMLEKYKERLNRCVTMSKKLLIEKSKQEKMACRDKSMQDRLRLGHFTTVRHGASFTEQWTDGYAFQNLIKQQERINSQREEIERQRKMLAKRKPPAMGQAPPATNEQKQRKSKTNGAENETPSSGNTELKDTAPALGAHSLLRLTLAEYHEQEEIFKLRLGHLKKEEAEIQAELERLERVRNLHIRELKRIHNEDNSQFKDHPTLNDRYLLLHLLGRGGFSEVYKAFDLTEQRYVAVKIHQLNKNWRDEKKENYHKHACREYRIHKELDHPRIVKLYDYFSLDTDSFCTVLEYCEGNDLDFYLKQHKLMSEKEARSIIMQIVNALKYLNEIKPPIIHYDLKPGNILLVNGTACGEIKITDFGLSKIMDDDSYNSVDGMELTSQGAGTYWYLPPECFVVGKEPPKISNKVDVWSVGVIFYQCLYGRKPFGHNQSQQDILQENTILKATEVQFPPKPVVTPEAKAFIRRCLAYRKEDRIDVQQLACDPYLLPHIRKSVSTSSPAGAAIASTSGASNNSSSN
Sequence of MAP/microtubule affinity-regulating kinase 3 (Homo sapiens) (P27448 whole entry, looked up): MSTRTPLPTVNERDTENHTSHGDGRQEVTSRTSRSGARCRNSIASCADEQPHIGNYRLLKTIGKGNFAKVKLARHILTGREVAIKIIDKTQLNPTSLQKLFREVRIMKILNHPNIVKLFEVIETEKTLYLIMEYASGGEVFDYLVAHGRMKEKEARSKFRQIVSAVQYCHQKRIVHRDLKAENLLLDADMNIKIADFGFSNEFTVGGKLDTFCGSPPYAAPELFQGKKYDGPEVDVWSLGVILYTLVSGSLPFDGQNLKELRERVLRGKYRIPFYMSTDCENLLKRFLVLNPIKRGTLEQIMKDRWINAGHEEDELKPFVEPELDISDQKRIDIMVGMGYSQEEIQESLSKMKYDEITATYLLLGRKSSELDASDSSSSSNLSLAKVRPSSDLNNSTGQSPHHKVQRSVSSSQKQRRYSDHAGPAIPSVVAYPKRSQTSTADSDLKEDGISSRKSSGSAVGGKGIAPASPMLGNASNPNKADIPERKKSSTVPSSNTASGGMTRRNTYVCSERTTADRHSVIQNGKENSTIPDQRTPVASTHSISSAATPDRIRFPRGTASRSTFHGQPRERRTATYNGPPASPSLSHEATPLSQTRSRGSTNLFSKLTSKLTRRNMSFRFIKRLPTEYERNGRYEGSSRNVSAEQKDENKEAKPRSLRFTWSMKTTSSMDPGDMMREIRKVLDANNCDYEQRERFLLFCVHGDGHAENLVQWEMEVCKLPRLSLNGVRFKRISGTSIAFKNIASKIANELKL
Sequence of Ephrin type-A receptor 2 (Homo sapiens) (P29317 whole entry): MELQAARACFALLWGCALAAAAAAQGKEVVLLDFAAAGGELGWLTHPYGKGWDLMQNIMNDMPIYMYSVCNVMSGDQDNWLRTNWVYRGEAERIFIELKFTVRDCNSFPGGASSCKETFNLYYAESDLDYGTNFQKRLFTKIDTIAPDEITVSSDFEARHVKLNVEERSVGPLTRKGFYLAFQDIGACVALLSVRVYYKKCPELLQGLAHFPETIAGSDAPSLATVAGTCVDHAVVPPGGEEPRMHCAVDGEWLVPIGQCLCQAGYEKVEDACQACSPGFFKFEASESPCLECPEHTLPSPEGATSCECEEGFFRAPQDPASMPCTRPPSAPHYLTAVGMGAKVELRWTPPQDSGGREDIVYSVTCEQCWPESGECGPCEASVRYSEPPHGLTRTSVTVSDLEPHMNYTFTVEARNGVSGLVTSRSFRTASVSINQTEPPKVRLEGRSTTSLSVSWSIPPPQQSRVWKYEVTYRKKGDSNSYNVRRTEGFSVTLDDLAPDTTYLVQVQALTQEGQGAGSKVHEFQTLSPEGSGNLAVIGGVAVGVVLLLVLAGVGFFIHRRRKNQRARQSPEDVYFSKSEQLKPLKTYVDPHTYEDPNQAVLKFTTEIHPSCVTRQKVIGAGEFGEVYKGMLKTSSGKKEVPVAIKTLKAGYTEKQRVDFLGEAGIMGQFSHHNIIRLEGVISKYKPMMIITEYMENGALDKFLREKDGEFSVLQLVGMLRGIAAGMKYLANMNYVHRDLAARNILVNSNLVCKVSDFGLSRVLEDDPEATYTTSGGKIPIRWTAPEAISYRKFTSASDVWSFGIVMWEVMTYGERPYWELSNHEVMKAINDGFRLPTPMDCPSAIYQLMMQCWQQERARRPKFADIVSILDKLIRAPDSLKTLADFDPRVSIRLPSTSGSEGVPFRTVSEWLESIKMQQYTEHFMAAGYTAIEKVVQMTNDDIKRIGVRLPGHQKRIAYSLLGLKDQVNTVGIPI

CNCCN1CCC(c2cc(CN(C)C(=O)c3cccc(Oc4ccccc4)c3)ccn2)CC1
% activity [1]: > 90%

CC(C)(O)[C@H](F)CN1Cc2cc(NC(=O)c3cnn4cccnc34)c(N3CCOCC3)cc2C1=O
dTM [2]: 3.4 K | dTM [3]: -0.3 K

Cc1cc([C@@H](C)Nc2ccccc2C(=O)O)c2nc(N3CCOCC3)cc(=O)n2c1 [AZD-6482]
% of control [4]: 89% | % of control [5]: 100% | % of control [6]: 100%

N#Cc1cccc(-c2c[nH]c3ncnc(N4CCOCC4)c23)c1
% of control [7]: 93% | % of control [8]: 100%

CNC(=O)Nc1ccc(-c2nc(N3CC4CCC(C3)O4)c3cnn(C4CCC5(CC4)OCCO5)c3n2)cc1
% of control [9]: 100%

Cc1cc(C)cc([C@@H]2c3cc(C)ccc3NC(=O)CN2C(=O)c2ccc(Br)s2)c1
% of inhibition [10]: 17%

Reference: ChEMBL document CHEMBL5465560, “Selectivity Literature for EUbOPEN Chemogenomic Library” (2024)
